Source: US20210393565A1, “PREPARATION FOR USE TO INCREASE THE FORMATION OF ONE OR MORE SPECIALIZED PRO-RESOLVING LIPID MEDIATORS (SPM)” (Evonik Operations GmbH, priority 2018, published 2021)

Each compound was assayed on Bacillus megaterium DSM 33296 cells (assay: Lipidometabolomics of culture supernatants with AvailOm dispersion formulation). Settings: Bacillus megaterium DSM 33296, AvailOm dispersion formulation; net concentration.
Format: cell-based
From the text: (§1) Bacterial supernatant samples were subjected to lipid extraction using RP-phase solid phase extraction and subsequently analyzed by ultra performance liquid chromatography ESI tandem mass spectrometry (UPLC-MS/MS) according to a published procedure. Under these conditions approximately 40 different LM, including 5-hydroxy-eicosapentaenoic acid 5-HEPE, 8-HEPE, 11-HEPE, 12-HEPE, 15-HEPE, 18-HEPE, 5-hydroxy-eicosatetraenoic acid (5-HETE), 8-HETE, 11-HETE, 12-HETE, 15-HETE, 4-hydroxy-DHA (4-HDHA), 7-HDHA, 13-HDHA, 14-HDHA, 17-HDHA, lipoxin A4 (LXA4), LXB4, resolvin E1 (RvE1), RvE3, resolvin D1-5 (RvD1-5), AT-RvD1, RvD2, protectin D1 (PD1), AT-PD1, maresin 1(MaR1), MaR2, plus 4 fatty acid substrates can be detected with a lower limit of detection of 1 pg.
(§2) 47 additional Bacillus megaterium strains sourced from various habitats were screened for their SPM production capacity to determine if this is a general phenomenon of the species Bacillus megaterium and to detect strain-specific differences in types and quantities of SPM being produced. Cells were cultured as detailed in example 4, with dispersion formulation of AvailOm® serving as omega-3 fatty acid source. Cell-free preparations of AvailOm® were treated and analyzed in parallel and served as controls for non-enzymatic, spontaneous formation of oxygenation products. It was observed that all tested strains produced measurable (>1 pg/ml) amounts of various SPM and precursors thereof, that these amounts were hugely different between the strains (up to 2.000 fold), and that concentrations of RvE3 were particularly high (up to 1.3 μg/ml) in most of the strains.
(§3) Values given in table 7 display net concentrations of PUFA oxygenation products formed by two of the top performing strains, Bacillus megaterium DSM 33296 and Bacillus megaterium DSM 33299.

Going from `CC[C@@H](O)/C=C/C=C\C[C@@H](O)/C=C/C=C/C=C\[C@@H](O)CCCC(=O)O` [RvE1, resolvin E1] to “5-hydroxy-eicosatetraenoic acid [5-HETE]”, the “Extracellular concentration of PUFA oxygenation product” value (“Extracellular concentration” below) rises from 5840 pg/mL to 15434 pg/mL (2.6-fold).

Compared with “12-hydroxy-eicosapentaenoic acid [12-HEPE]”, `CC/C=C\C[C@H](O)/C=C/C=C\C[C@@H](O)/C=C/C=C/C=C\[C@@H](O)CCC(=O)O` [RvD3] is 330-fold lower in “Extracellular concentration” value: 124701 pg/mL for the first, 381 pg/mL for the second.

Compared with `CC/C=C\C[C@H](O)/C=C\C=C\C/C=C/C=C/C=C/C(O)[C@@H](O)CCC(=O)O` (some centres unmarked) [RvD4], `CC/C=C\C[C@H](O)/C=C/C=C\C/C=C\C=C\[C@@H](O)C/C=C\CCC(=O)O` [RvD5] is 7.6-fold higher in “Extracellular concentration” value: 1986 pg/mL for the first, 15079 pg/mL for the second.

Compared with `CC/C=C\CC(O)/C=C/C=C\C/C=C\C/C=C\CCCC(=O)O` (centres unmarked) [15-HEPE, 15-hydroxy-eicosapentaenoic acid], `CC[C@H](O)C(O)/C=C/C=C/C=C\C/C=C\C/C=C\CCCC(=O)O` (some centres unmarked) [RvE3, resolvin E3] is 5.2-fold higher in “Extracellular concentration” value: 256797 pg/mL for the first, 1322555 pg/mL for the second.

Going from RvD1 to `CCC=CCC=CCC=CCC=CC=CC(O)CCCC(=O)O` (centres unmarked) [5-HEPE, 5-hydroxy-eicosapentaenoic acid], the “Extracellular concentration” value rises from 3626 pg/mL to 395188 pg/mL (110-fold).

Going from `CC/C=C\C[C@@H](O)\C=C/C=C/C=C/[C@H](O)C/C=C\C/C=C\CCC(=O)O` [AT-PD1 1, Aspirin-triggered PD1] to `CCCCC/C=C\C[C@@H](O)/C=C/C=C/C=C\[C@@H](O)CCCC(=O)O` [LTB4, leukotriene B4], the “Extracellular concentration” value falls from 4558 pg/mL to 1769 pg/mL (2.6-fold).

First: CC/C=C\C[C@H](O)/C=C/C=C\C=C\[C@@H](O)C/C=C\C/C=C\CCC(=O)O [PDX 1]
Second: CCCCC/C=C\C/C=C\C=C\C(O)C/C=C\CCCC(=O)O (centres unmarked) [8-HETE, 8-hydroxy-eicosatetraenoic acid]
The “Extracellular concentration” value of the first is 3.2-fold higher: 78345 pg/mL for the first, 24207 pg/mL for the second.

What follows are compounds tested on Bacillus megaterium DSM 33299 cells in the same assay as above. Settings: Bacillus megaterium DSM 33299, AvailOm dispersion formulation; net concentration.
Format: cell-based
From the text: as §1, §2, §3

Compared with `CC[C@@H](O)/C=C/C=C\C[C@@H](O)/C=C/C=C/C=C\[C@@H](O)CCCC(=O)O` [RvE1, resolvin E1], “5-hydroxy-eicosatetraenoic acid [5-HETE]” is 3-fold lower in “Extracellular concentration” value: 28379 pg/mL for the first, 9356 pg/mL for the second.

Compared with “12-hydroxy-eicosapentaenoic acid [12-HEPE]”, `CC/C=C\C[C@H](O)/C=C/C=C\C[C@@H](O)/C=C/C=C/C=C\[C@@H](O)CCC(=O)O` [RvD3] is 85-fold lower in “Extracellular concentration” value: 79699 pg/mL for the first, 941 pg/mL for the second.

First: CC/C=C\C[C@H](O)/C=C\C=C\C/C=C/C=C/C=C/C(O)[C@@H](O)CCC(=O)O (some centres unmarked) [RvD4]
Second: CC/C=C\C[C@H](O)/C=C/C=C\C/C=C\C=C\[C@@H](O)C/C=C\CCC(=O)O [RvD5]
The “Extracellular concentration” value of the first is 14-fold lower: 2523 pg/mL for the first, 34168 pg/mL for the second.

First: CC/C=C\CC(O)/C=C/C=C\C/C=C\C/C=C\CCCC(=O)O (centres unmarked) [15-HEPE, 15-hydroxy-eicosapentaenoic acid]
Second: CC[C@H](O)C(O)/C=C/C=C/C=C\C/C=C\C/C=C\CCCC(=O)O (some centres unmarked) [RvE3, resolvin E3]
The “Extracellular concentration” value of the first is 5.8-fold lower: 151168 pg/mL for the first, 880739 pg/mL for the second.

First: RvD1
Second: CCC=CCC=CCC=CCC=CC=CC(O)CCCC(=O)O (centres unmarked) [5-HEPE, 5-hydroxy-eicosapentaenoic acid]
The “Extracellular concentration” value of the first is 230-fold lower: 4389 pg/mL for the first, 989691 pg/mL for the second.

Going from `CC/C=C\C[C@@H](O)\C=C/C=C/C=C/[C@H](O)C/C=C\C/C=C\CCC(=O)O` [AT-PD1 1, Aspirin-triggered PD1] to `CCCCC/C=C\C[C@@H](O)/C=C/C=C/C=C\[C@@H](O)CCCC(=O)O` [LTB4, leukotriene B4], the “Extracellular concentration” value falls from 10317 pg/mL to 2206 pg/mL (4.7-fold).

Going from `CC/C=C\C[C@H](O)/C=C/C=C\C=C\[C@@H](O)C/C=C\C/C=C\CCC(=O)O` [PDX 1] to `CCCCC/C=C\C/C=C\C=C\C(O)C/C=C\CCCC(=O)O` (centres unmarked) [8-HETE, 8-hydroxy-eicosatetraenoic acid], the “Extracellular concentration” value falls from 138918 pg/mL to 15941 pg/mL (8.7-fold).

Each compound was assayed on Bacillus megaterium DSM 32963 cells (assay: Lipidometabolomics (UPLC-MS/MS) of culture supernatants with AvailOm, dissolved or as dispersion). Settings: not given.
Format: cell-based
From the text: as §1
To investigate if Bacillus megaterium is capable of producing other PUFA oxygenation products in addition to 18-HEPE, a lipidometabolomics screening of supernatants from Bacillus megaterium strain 32963 cultured as in example 4 with AvailOm® was performed, either dissolved or in a dispersion formulation, with or without bile acids. Cell-free preparations of AvailOm® formulations were treated and analyzed in parallel and served as controls for non-enzymatic, spontaneous formation of oxygenation products. Values given in table 6 display net concentrations of products formed, i.e. after subtraction of control values. […] Concentrations of several SPM exceed by far the concentrations of SPM found in human plasma samples, which are typically in a range of ˜20-100 pg/ml. For comparison, human breast milk contains ˜6.000 pg/ml RvE1 and ˜10.000 pg/ml RvD1 [42].

“5-hydroxy-eicosatetraenoic acid [5-HETE]” was tested, and the “abundance with dispersion formulation and/or bile acids compared to AvailOm without both (in words)” value was “lower”.
“12-hydroxy-eicosapentaenoic acid [12-HEPE]” was tested, and the “abundance with dispersion formulation and/or bile acids compared to AvailOm without both (in words)” value was “lower”.
For `CC/C=C\CC(O)/C=C/C=C\C/C=C\C/C=C\CCCC(=O)O` (centres unmarked) [15-HEPE, 15-hydroxy-eicosapentaenoic acid], the “abundance with dispersion formulation and/or bile acids compared to AvailOm without both (in words)” value was “lower”.
In the case of `CCC=CCC=CCC=CCC=CC=CC(O)CCCC(=O)O` (centres unmarked) [5-HEPE, 5-hydroxy-eicosapentaenoic acid], the “abundance with dispersion formulation and/or bile acids compared to AvailOm without both (in words)” value is reported as “lower”.
With `CCCCC/C=C\C/C=C\C=C\C(O)C/C=C\CCCC(=O)O` (centres unmarked) [8-HETE, 8-hydroxy-eicosatetraenoic acid] the “abundance with dispersion formulation and/or bile acids compared to AvailOm without both (in words)” value was “lower”.

Same assay, conditions: − bile acids, AvailOm dispersion; net after subtraction of cell-free control

First: CC[C@@H](O)/C=C/C=C\C[C@@H](O)/C=C/C=C/C=C\[C@@H](O)CCCC(=O)O [RvE1, resolvin E1]
Second: CC/C=C\C[C@H](O)/C=C/C=C\C[C@@H](O)/C=C/C=C/C=C\[C@@H](O)CCC(=O)O [RvD3]
The “Extracellular concentration” value of the first is 6.9-fold higher: 57826 pg/mL for the first, 8409 pg/mL for the second.

Compared with `CC/C=C\C[C@H](O)/C=C/C=C\C/C=C\C=C\[C@@H](O)C/C=C\CCC(=O)O` [RvD5], `CC[C@H](O)C(O)/C=C/C=C/C=C\C/C=C\C/C=C\CCCC(=O)O` (some centres unmarked) [RvE3, resolvin E3] is 3.7-fold higher in “Extracellular concentration” value: 9016 pg/mL for the first, 33092 pg/mL for the second.

First: RvD1
Second: CC/C=C\C[C@@H](O)\C=C/C=C/C=C/[C@H](O)C/C=C\C/C=C\CCC(=O)O [AT-PD1 1, Aspirin-triggered PD1]
The “Extracellular concentration” value of the first is 7.5-fold higher: 1863 pg/mL for the first, 247 pg/mL for the second.

With `CC/C=C\C[C@H](O)/C=C/C=C\C=C\[C@@H](O)C/C=C\C/C=C\CCC(=O)O` [PDX 1] the “Extracellular concentration” value was 19542 pg/mL.

Same assay, conditions: − bile acids, AvailOm; net after subtraction of cell-free control

Going from `CC[C@@H](O)/C=C/C=C\C[C@@H](O)/C=C/C=C/C=C\[C@@H](O)CCCC(=O)O` [RvE1, resolvin E1] to “5-hydroxy-eicosatetraenoic acid [5-HETE]”, the “Extracellular concentration” value falls from 88 pg/mL to 13 pg/mL (6.8-fold).

First: 12-hydroxy-eicosapentaenoic acid [12-HEPE]
Second: CC/C=C\C[C@H](O)/C=C/C=C\C[C@@H](O)/C=C/C=C/C=C\[C@@H](O)CCC(=O)O [RvD3]
The “Extracellular concentration” value of the first is 25-fold higher: 4413 pg/mL for the first, 178 pg/mL for the second.

Compared with `CC/C=C\C[C@H](O)/C=C\C=C\C/C=C/C=C/C=C/C(O)[C@@H](O)CCC(=O)O` (some centres unmarked) [RvD4], `CC/C=C\C[C@H](O)/C=C/C=C\C/C=C\C=C\[C@@H](O)C/C=C\CCC(=O)O` [RvD5] is 54-fold lower in “Extracellular concentration” value: 3681 pg/mL for the first, 68 pg/mL for the second.

Going from `CC/C=C\CC(O)/C=C/C=C\C/C=C\C/C=C\CCCC(=O)O` (centres unmarked) [15-HEPE, 15-hydroxy-eicosapentaenoic acid] to RvD1, the “Extracellular concentration” value falls from 7536 pg/mL to 598 pg/mL (13-fold).

Compared with `CCC=CCC=CCC=CCC=CC=CC(O)CCCC(=O)O` (centres unmarked) [5-HEPE, 5-hydroxy-eicosapentaenoic acid], `CC/C=C\C[C@@H](O)\C=C/C=C/C=C/[C@H](O)C/C=C\C/C=C\CCC(=O)O` [AT-PD1 1, Aspirin-triggered PD1] is 23-fold lower in “Extracellular concentration” value: 2253 pg/mL for the first, 96 pg/mL for the second.

First: CCCCC/C=C\C[C@@H](O)/C=C/C=C/C=C\[C@@H](O)CCCC(=O)O [LTB4, leukotriene B4]
Second: CC/C=C\C[C@H](O)/C=C/C=C\C=C\[C@@H](O)C/C=C\C/C=C\CCC(=O)O [PDX 1]
The “Extracellular concentration” value of the first is 1.6-fold higher: 171 pg/mL for the first, 109 pg/mL for the second.

These compounds were tested on 47 additional Bacillus megaterium strains (assay: Screening of 47 additional strains for SPM production from AvailOm dispersion formulation). Settings: not given.
Format: cell-based
From the text: as §1
as §2, with “It was observed that all tested strains produced measurable (>1 pg/ml) amounts of various SPM and precursors thereof, that these amounts were hugely different between the strains (up to 2.000 fold), and that concentrations of RvE3 were particularly high (up to 1.3 μg/ml) in most of the strains.” left out

In the case of `CC[C@H](O)C(O)/C=C/C=C/C=C\C/C=C\C/C=C\CCCC(=O)O` (some centres unmarked) [RvE3, resolvin E3], the “concentration produced, highest among the strains” value is reported as “up to 1.3 μg/ml”.
